Experimental data as given in ChEMBL document CHEMBL3774345, “Synthesis of new diarylamides with pyrimidinyl pyridine scaffold and evaluation of their anti-proliferative effect on cancer cell lines” (Bioorg Med Chem Lett, 2016).

How the values were obtained:
Format in all cases: functional
MCF7 = experiment: Cytotoxicity against human MCF7 cells assessed as cell growth at 10 uM after 24 hrs by SRB assay; conditions: MCF7, 24 h, read-out: Activity
[1] = Cytotoxicity against human SF539 cells assessed as cell growth at 10 uM after 24 hrs by SRB assay; conditions: SF-539, 24 h, read-out: Activity
[2] = Cytotoxicity against human SF268 cells assessed as cell growth at 10 uM after 24 hrs by SRB assay; conditions: SF-268, 24 h, read-out: Activity
786-0 = experiment: Cytotoxicity against human 786-0 cells assessed as cell growth at 10 uM after 24 hrs by SRB assay; conditions: 786-0, 24 h, read-out: Activity
[3] = Cytotoxicity against human SNB19 cells assessed as cell growth at 10 uM after 24 hrs by SRB assay; conditions: SNB-19, 24 h, read-out: Activity
MDA-MB-468 = experiment: Cytotoxicity against human MDA-MB-468 cells assessed as cell growth at 10 uM after 24 hrs by SRB assay; conditions: MDA-MB-468, 24 h, read-out: Activity
SK-MEL-2 = experiment: Cytotoxicity against human SK-MEL-2 cells assessed as cell growth at 10 uM after 24 hrs by SRB assay; conditions: SK-MEL-2, 24 h, read-out: Activity
[4] = Cytotoxicity against human OVCAR8 cells assessed as cell growth at 10 uM after 24 hrs by SRB assay; conditions: OVCAR-8, 24 h, read-out: Activity
[5] = Cytotoxicity against human PC3 cells assessed as cell growth at 10 uM after 24 hrs by SRB assay; conditions: PC-3, 24 h, read-out: Activity
[6] = Cytotoxicity against human SF295 cells assessed as cell growth at 10 uM after 24 hrs by SRB assay; conditions: SF-295, 24 h, read-out: Activity
HT-29 = experiment: Cytotoxicity against human HT-29 cells assessed as cell growth at 10 uM after 24 hrs by SRB assay; conditions: HT-29, 24 h, read-out: Activity
MDA-MB-231 = experiment: Cytotoxicity against human MDA-MB-231 cells assessed as cell growth at 10 uM after 24 hrs by SRB assay; conditions: MDA-MB-231, 24 h, read-out: Activity
[7] = Cytotoxicity against human OVCAR3 cells assessed as cell growth at 10 uM after 24 hrs by SRB assay; conditions: OVCAR-3, 24 h, read-out: Activity
[8] = Cytotoxicity against human OVCAR4 cells assessed as cell growth at 10 uM after 24 hrs by SRB assay; conditions: OVCAR-4, 24 h, read-out: Activity
K562 = experiment: Cytotoxicity against human K562 cells assessed as cell growth at 10 uM after 24 hrs by SRB assay; conditions: K562, 24 h, read-out: Activity
CCRF-CEM = experiment: Cytotoxicity against human CCRF-CEM cells assessed as cell growth at 10 uM after 24 hrs by SRB assay; conditions: read-out: Activity
[9] = Cytotoxicity against human HOP62 cells assessed as cell growth at 10 uM after 24 hrs by SRB assay; conditions: HOP-62, 24 h, read-out: Activity
KM12 = experiment: Cytotoxicity against human KM12 cells assessed as cell growth at 10 uM after 24 hrs by SRB assay; conditions: KM12, 24 h, read-out: Activity
SR = experiment: Cytotoxicity against human SR cells assessed as cell growth at 10 uM after 24 hrs by SRB assay; conditions: read-out: Activity
[10] = Cytotoxicity against human DU145 cells assessed as cell growth at 10 uM after 24 hrs by SRB assay; conditions: DU-145, 24 h, read-out: Activity
[11] = Cytotoxicity against human Caki1 cells assessed as cell growth at 10 uM after 24 hrs by SRB assay; conditions: CAKI-1, 24 h, read-out: Activity
Malme-3M = experiment: Cytotoxicity against human MALME-3M cells assessed as cell growth at 10 uM after 24 hrs by SRB assay; conditions: read-out: Activity
[12] = Cytotoxicity against human SNB75 cells assessed as cell growth at 10 uM after 24 hrs by SRB assay; conditions: SNB-75, 24 h, read-out: Activity
U-251 = experiment: Cytotoxicity against human U251 cells assessed as cell growth at 10 uM after 24 hrs by SRB assay; conditions: U-251, 24 h, read-out: Activity
[13] = Cytotoxicity against human NCI60 cells assessed as growth inhibition at 10 uM after 24 hrs by SRB assay; conditions: NCI60, 24 h
[14] = Cytotoxicity against human RPMI8226 cells assessed as cell growth at 10 uM after 24 hrs by SRB assay; conditions: RPMI-8226, 24 h, read-out: Activity
[15] = Cytotoxicity against human TK10 cells assessed as cell growth at 10 uM after 24 hrs by SRB assay; conditions: TK-10, 24 h, read-out: Activity
[16] = Cytotoxicity against human IGROV1 cells assessed as cell growth at 10 uM after 24 hrs by SRB assay; conditions: IGROV-1, 24 h, read-out: Activity
[17] = Cytotoxicity against human UACC62 cells assessed as cell growth at 10 uM after 24 hrs by SRB assay; conditions: UACC-62, 24 h, read-out: Activity
[18] = Cytotoxicity against human OVCAR5 cells assessed as cell growth at 10 uM after 24 hrs by SRB assay; conditions: OVCAR-5, 24 h, read-out: Activity
A498 = experiment: Cytotoxicity against human A498 cells assessed as cell growth at 10 uM after 24 hrs by SRB assay; conditions: A498, 24 h, read-out: Activity
EKVX = experiment: Cytotoxicity against human EKVX cells assessed as cell growth at 10 uM after 24 hrs by SRB assay; conditions: read-out: Activity
MDA-MB-435 = experiment: Cytotoxicity against human MDA-MB-435 cells assessed as cell growth at 10 uM after 24 hrs by SRB assay; conditions: MDA-MB-435, 24 h, read-out: Activity
[19] = Cytotoxicity against human HL-60(TB) cells assessed as cell growth at 10 uM after 24 hrs by SRB assay; conditions: HL-60, 24 h, read-out: Activity
[20] = Cytotoxicity against human SKOV3 cells assessed as cell growth at 10 uM after 24 hrs by SRB assay; conditions: SK-OV-3, 24 h, read-out: Activity
[21] = Cytotoxicity against human MOLT4 cells assessed as cell growth at 10 uM after 24 hrs by SRB assay; conditions: MOLT-4, 24 h, read-out: Activity
NCI-H460 = experiment: Cytotoxicity against human NCI-H460 cells assessed as cell growth at 10 uM after 24 hrs by SRB assay; conditions: NCI-H460, 24 h, read-out: Activity
[22] = Cytotoxicity against human RXF393 cells assessed as cell growth at 10 uM after 24 hrs by SRB assay; conditions: RXF 393, 24 h, read-out: Activity
[23] = Cytotoxicity against human HCC2998 cells assessed as cell growth at 10 uM after 24 hrs by SRB assay; conditions: HCC 2998, 24 h, read-out: Activity

SMILES	growth at 10 µM (MCF7) [%]	growth at 10 µM [1] [%]	growth at 10 µM [2] [%]	growth at 10 µM (786-0) [%]	growth at 10 µM [3] [%]	growth at 10 µM (MDA-MB-468) [%]	growth at 10 µM (SK-MEL-2) [%]	growth at 10 µM [4] [%]	growth at 10 µM [5] [%]	growth at 10 µM [6] [%]	growth at 10 µM (HT-29) [%]	growth at 10 µM (MDA-MB-231) [%]	growth at 10 µM [7] [%]	growth at 10 µM [8] [%]	growth at 10 µM (K562) [%]	growth at 10 µM (CCRF-CEM) [%]	growth at 10 µM [9] [%]	growth at 10 µM (KM12) [%]	growth at 10 µM (SR) [%]	growth at 10 µM [10] [%]	also measured
COCCCNc1nc(NC(=O)c2ccc(Cl)cc2C)cc(-c2cccnc2)n1	81.1	89.9	104	85.4	91.7	111	107	94.2	110	104	105	94	117	106	104	96.5	99.3	104	110	103	growth at 10 µM [11]: 99.5%; growth at 10 µM (Malme-3M): 103%; growth at 10 µM [12]: 87.6%; growth at 10 µM (U-251): 112%; inhibition at 10 µM [13]: 0.78%; growth at 10 µM [14]: 90.2%; growth at 10 µM [15]: 88.5%; growth at 10 µM [16]: 106%; growth at 10 µM [17]: 109%; growth at 10 µM [18]: 91.6%; growth at 10 µM (A498): 109%; growth at 10 µM (EKVX): 108%; growth at 10 µM (MDA-MB-435): 95.6%; growth at 10 µM [19]: 106%; growth at 10 µM [20]: 98.4%; growth at 10 µM [21]: 93.9%; growth at 10 µM (NCI-H460): 102%; growth at 10 µM [22]: 91.1%; growth at 10 µM [23]: 103%
O=C(Nc1cc(-c2cccnc2)nc(NCCCN2CCOCC2)n1)c1cc(Br)cc(C(F)(F)F)c1	38.6	66.5	60.9	51.8	69.6	52.8	81.3	58.5	57.7	-22.8	8.99	32.7	80	62.2	8.84	42.8	69.4	80	4.25	82.5	growth at 10 µM [11]: 61.8%; growth at 10 µM (Malme-3M): -7.83%; growth at 10 µM [12]: 72.1%; growth at 10 µM (U-251): 33.1%; inhibition at 10 µM [13]: 57.2%; growth at 10 µM [14]: 30.2%; growth at 10 µM [15]: 65.4%; growth at 10 µM [16]: 63.1%; growth at 10 µM [17]: -6.13%; growth at 10 µM [18]: 81.4%; growth at 10 µM (A498): 53.7%; growth at 10 µM (EKVX): 77.4%; growth at 10 µM (MDA-MB-435): 9.55%; growth at 10 µM [19]: 48.5%; growth at 10 µM [20]: 92.3%; growth at 10 µM [21]: 45.1%; growth at 10 µM (NCI-H460): 56%; growth at 10 µM [22]: 52.8%; growth at 10 µM [23]: 37.8%
O=C(Nc1cc(-c2cccnc2)nc(NCCCN2CCOCC2)n1)c1ccc(F)cc1Cl	87.4	101	94.9	89.2	94.2	93.5	91.3	94.2	91.2	100	87.3	93.2	106	115	83.3	88.3	95.5	104	92.8	112	growth at 10 µM [11]: 90.3%; growth at 10 µM (Malme-3M): 108%; growth at 10 µM [12]: 112%; growth at 10 µM (U-251): 92%; inhibition at 10 µM [13]: 3.57%; growth at 10 µM [14]: 90%; growth at 10 µM [15]: 97.1%; growth at 10 µM [16]: 95.9%; growth at 10 µM [17]: 105%; growth at 10 µM [18]: 100%; growth at 10 µM (A498): 81.2%; growth at 10 µM (EKVX): 102%; growth at 10 µM (MDA-MB-435): 106%; growth at 10 µM [19]: 83.6%; growth at 10 µM [20]: 101%; growth at 10 µM [21]: 98.4%; growth at 10 µM (NCI-H460): 94.8%; growth at 10 µM [22]: 102%; growth at 10 µM [23]: 98.4%
